Results: ChEMBL document CHEMBL1177825, “Subtype-selectivity of metal-dependent methionine aminopeptidase inhibitors” (Bioorg Med Chem Lett, 2010)
Calls of active or inactive are those of the source. No cut-off for these calls is given here.

Experiments:
Escherichia coli = assay: Inhibition of Escherichia coli MetAP at 25 uM
Staphylococcus aureus = assay: Inhibition of Staphylococcus aureus MetAP at 25 uM
[1] = Inhibition of Escherichia coli MetAP
[2] = molecular target: Methionine aminopeptidase 2 (Homo sapiens, UniProt P50579); assay: Inhibition of human MetAP2 expressed in baculovirus infected Sf9 cells
Chain of Methionine aminopeptidase 2 (P50579 whole entry): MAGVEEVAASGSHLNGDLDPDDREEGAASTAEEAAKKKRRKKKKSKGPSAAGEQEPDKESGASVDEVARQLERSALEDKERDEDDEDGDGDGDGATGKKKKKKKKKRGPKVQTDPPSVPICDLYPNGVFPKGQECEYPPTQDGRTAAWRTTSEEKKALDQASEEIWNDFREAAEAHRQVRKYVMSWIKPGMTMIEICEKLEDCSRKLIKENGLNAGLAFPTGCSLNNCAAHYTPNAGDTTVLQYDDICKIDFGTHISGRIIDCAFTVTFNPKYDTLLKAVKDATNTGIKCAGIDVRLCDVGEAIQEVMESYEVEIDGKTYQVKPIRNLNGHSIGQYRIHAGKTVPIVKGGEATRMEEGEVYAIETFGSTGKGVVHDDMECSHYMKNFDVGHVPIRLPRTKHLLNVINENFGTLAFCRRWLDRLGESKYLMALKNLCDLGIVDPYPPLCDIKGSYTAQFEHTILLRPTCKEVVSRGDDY

[3] = molecular target: Methionine aminopeptidase 1 (Homo sapiens, UniProt P53582); assay: Inhibition of human MetAP1
[4] = Inhibition of Staphylococcus aureus MetAP

| Compound | inhibition (Escherichia coli) | inhibition (Staphylococcus aureus) | IC50 [1] | IC50 [2] | IC50 [3] | IC50 [4] |
| --- | --- | --- | --- | --- | --- | --- |
| CCCSc1ccc2[nH]c(NC(=O)OC)nc2c1 | 35% | 10.5% |  |  |  |  |
| O=C(Nc1nccs1)c1ccccn1 | 100% | 58% | 0.06 µM | 25.8 µM | 8.1 µM | 21.2 µM |
| c1coc(-c2nc3ccccc3[nH]2)c1 | 26% | 10% |  |  |  |  |
| c1cncc(-c2nc3ccccc3[nH]2)c1 | inactive | 20% |  |  |  |  |
| Fc1ccc2nc(-c3ccccn3)[nH]c2c1 |  | 31% | 1.5 µM |  |  | 40.1 µM |
| CC(C)(C)c1ccc2[nH]c(-c3cscn3)nc2c1 |  | 30.2% | 3.9 µM |  |  | 41.7 µM |
| O=C(Nc1nccs1)c1ccc([N+](=O)[O-])cc1 | inactive | inactive |  |  |  |  |
| Cc1ccc2nc(-c3ccccn3)[nH]c2c1 |  | 68% | 2.1 µM |  |  | 19.4 µM |
| Oc1cccc2cccnc12 [OXYQUINOLINE] | 95% | 65% | 0.77 µM | 5.6 µM | 21.5 µM | 18.3 µM |
| Cc1cc2nc(-c3cscn3)[nH]c2cc1C |  | 17% | 10 µM |  |  |  |
| Clc1ccc2nc(-c3ccccn3)[nH]c2c1 |  | 16% | 1.7 µM |  |  |  |
| c1ccc(-c2nc3ncc[nH]c-3n2)nc1 |  | 51% | 0.24 µM |  |  | 22 µM |
| Cc1ccc(S(=O)(=O)Oc2cccc3cccnc23)cc1 | inactive | inactive |  |  |  |  |
| O=S(=O)(Nc1cccc2cccnc12)c1ccccc1 | 93% | 47% | 11 µM | 39.8 µM |  | 22.9 µM |
| Nc1ccc2[nH]c(-c3cscn3)nc2c1 |  | 92% | 3.4 µM |  |  | 2.3 µM |
| Nc1ccc2nc(-c3ccccn3)[nH]c2c1 |  |  |  | 9.3 µM |  |  |
| c1ccc(Cn2c(-c3ccccn3)nc3ccccc32)cc1 |  | inactive | 0.99 µM |  |  |  |
| c1ccc(-c2nc3ccc[nH]c-3n2)nc1 |  | 76% | 0.11 µM |  |  | 18.8 µM |
| COC(=O)Nc1nc2ccccc2[nH]1 | 34% | inactive |  |  |  |  |
| Nc1ccc2[nH]c(-c3ccccn3)nc2c1 |  | 92% | 0.97 µM |  |  | 4.9 µM |
| c1ccc2[nH]c(-c3cnccn3)nc2c1 |  | inactive | 4.6 µM |  |  |  |
| Cc1cc2nc(-c3ccccn3)[nH]c2cc1C |  | 87% | 2.4 µM |  |  | 17.9 µM |
| Oc1cccc(-c2nc3ccccc3[nH]2)n1 |  | 47% | 1.3 µM |  |  | 29.2 µM |
| Cc1cc(NC(=O)c2ccccn2)no1 | 80% | 20% | 2.8 µM |  |  |  |
| O=C(Nc1cccc2cccnc12)c1ccccc1 | inactive | inactive |  |  |  |  |

| Compound | inhibition (Escherichia coli) | inhibition (Staphylococcus aureus) | IC50 [1] | IC50 [2] | IC50 [3] | IC50 [4] |
| --- | --- | --- | --- | --- | --- | --- |
| O=S(=O)(Oc1cccc2cccnc12)c1ccccc1 | inactive | 62% |  |  |  | 16 µM |
| COC(=O)Nc1nc2cc(Sc3ccccc3)ccc2[nH]1 | inactive | 12.5% |  |  |  |  |
| c1cc2nc(-c3cscn3)[nH]c2cn1 |  |  |  |  | 19 µM |  |
| N#Cc1ccc2[nH]c(-c3ccccn3)nc2c1 |  | 29% | 0.43 µM |  |  | 33 µM |
| c1ccc2[nH]c(-c3cscn3)nc2c1 [THIABENDAZOLE] | 86.3% | 28% | 0.47 µM | 44.7 µM | 47.8 µM |  |
| Cc1ccc2[nH]c(-c3ccccn3)nc2c1 |  |  |  | 7.7 µM |  |  |
| c1csc(-c2nc3ccccc3[nH]2)c1 | inactive | inactive |  |  |  |  |
| COC(=O)Nc1nc2cc(C(=O)c3ccccc3)ccc2[nH]1 | 47% | inactive |  |  |  |  |
| N/C(S)=N/c1nc2ccccc2[nH]1 |  | 31% | 9 µM |  |  | 35.9 µM |
| Oc1ccccc1-c1nc2ccccc2[nH]1 | 66% | 12% |  |  |  |  |
| c1cc2[nH]c(-c3cscn3)nc2cn1 |  | 32% | 1.7 µM |  |  | 45.5 µM |
| O=S(=O)(Oc1cccc2cccnc12)c1ccccn1 | 38% | inactive |  |  |  |  |
| Oc1cccnc1-c1nc2ccccc2[nH]1 |  | 97% | 0.78 µM |  |  | 4.4 µM |
| O=S(=O)(Nc1nccs1)c1ccccn1 | 23% |  |  |  |  |  |
| c1cnc2nc(-c3nccs3)[nH]c2c1 |  | 21% | 0.08 µM |  |  |  |
| Clc1ccc2[nH]c(-c3cscn3)nc2c1 |  | 15% | 5.2 µM |  |  |  |
| CC(C)(C)c1ccc2[nH]c(-c3ccccn3)nc2c1 |  | 40.9% | 2.6 µM |  |  | 38.9 µM |
| O=[N+]([O-])c1ccc2nc(-c3cscn3)[nH]c2c1 |  |  |  |  | 48.5 µM |  |
| O=C(Oc1cccc2cccnc12)c1ccccc1 [BENZOXIQUINE] | 32% | 10% |  | 34.8 µM |  |  |
| c1ccc(-c2nc3ccccc3[nH]2)nc1 |  | 56% | 0.57 µM | 13.3 µM | 28.4 µM | 19.9 µM |
| c1ccc2[nH]c(Nc3nccs3)nc2c1 |  | 52% | 0.54 µM |  |  | 22.4 µM |
| c1ccc(-c2nc3c[nH]cnc-3n2)nc1 |  | 18% | 0.38 µM |  |  |  |
| O=[N+]([O-])c1ccc2[nH]c(-c3ccccn3)nc2c1 |  | inactive | 0.16 µM |  | 28.8 µM |  |
| Cc1cc(NS(=O)(=O)c2ccccn2)no1 | 21% | inactive |  |  |  |  |
| c1ccc(-c2nc3cc[nH]cc-3n2)nc1 |  | 55% | 0.55 µM |  |  | 22.8 µM |
